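Cultured in 96-well plates, cells were exposed to test compound for 48 hours across five concentrations. GI50: concentration for 50% inhibition of growth.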 Calls of active or inactive are those of the source. No stated cut-off is given here; in the data, active = GI50 up to about 1.1 µM and inactive = higher.
Assays:
Experiment in all cases: NCI-60 cell line screen, 48 h
[1] = tested on: 786-0
[2] = tested on: BT-549
[3] = tested on: CCRF-CEM
[4] = tested on: HCT-116
[5] = tested on: HCT-15
[6] = tested on: HL-60
[7] = tested on: HT-29
[8] = tested on: IGROV-1
[9] = tested on: K562
[10] = tested on: MDA-MB-435
[11] = tested on: MDA-N
[12] = tested on: Malme-3M
[13] = tested on: NCI-H460
[14] = tested on: OVCAR-3
[15] = tested on: OVCAR-5
[16] = tested on: SF-295
[17] = tested on: SK-MEL-28
[18] = tested on: SNB-19
[19] = tested on: SNB-75

Row | Compound | GI50 [1] | GI50 [2] | GI50 [3] | GI50 [4] | GI50 [5] [µM] | GI50 [6] | GI50 [7] | GI50 [8] | GI50 [9] | GI50 [10] | GI50 [11] | GI50 [12] | GI50 [13] | GI50 [14] | GI50 [15] | GI50 [16] | GI50 [17] | GI50 [18] | GI50 [19]
1 | C=CCOC(=O)[C@@H]1C[C@@H](OC(C)(C)C)CN1C(=O)[C@@H]1[C@H]2OC(C)(C)O[C@H]2CN1C(=O)OCC1c2ccccc2-c2ccccc21 | 5.46 µM (inactive) | 20.1 µM (inactive) | 16.6 µM (inactive) | 17.4 µM (inactive) | 11.4 | 11 µM (inactive) | 17.2 µM (inactive) | 17 µM (inactive) | 11 µM (inactive) | 17.2 µM (inactive) | 18.1 µM (inactive) | 18.2 µM (inactive) | 10.5 µM (inactive) | 17.9 µM (inactive) | 16.9 µM (inactive) | 17.9 µM (inactive) | 18.1 µM (inactive) | 16.9 µM (inactive) | 17.5 µM (inactive)
2 | CCOCc1nc2c(OC)c(-c3nc4ccc(N5CCN(C)CC5)cc4[nH]3)cc(OC)c2[nH]1 | 31 µM (inactive) | 66.4 µM (inactive) | 12.7 µM (inactive) | 34 µM (inactive) | 44.2 | 4.39 µM (inactive) | 27.8 µM (inactive) | 91.6 µM (inactive) | 35.6 µM (inactive) | 20.6 µM (inactive) | 18.6 µM (inactive) | 18 µM (inactive) | 26.4 µM (inactive) | 31.6 µM (inactive) | 83.6 µM (inactive) | 21 µM (inactive) | 18.6 µM (inactive) | 44.4 µM (inactive) | 28.9 µM (inactive)
3 | OC(C1CCCC1=N/N=C1/CCCC1C(O)(C(F)(F)Cl)C(F)(F)Cl)(C(F)(F)Cl)C(F)(F)Cl (stereo not drawn) | > 10 µM (inactive) | > 10 µM (inactive) | > 10 µM (inactive) | > 10 µM (inactive) | > 10 | > 10 µM (inactive) | > 10 µM (inactive) | > 10 µM (inactive) | > 10 µM (inactive) | > 10 µM (inactive) | > 10 µM (inactive) | > 10 µM (inactive) | > 10 µM (inactive) | > 10 µM (inactive) | > 10 µM (inactive) | > 10 µM (inactive) | > 10 µM (inactive) | > 10 µM (inactive) | > 10 µM (inactive)
4 | CCOC(=O)CCC(NC(=O)OCc1ccccc1)C(=O)NNC(=O)OC(C)(C)C (stereo not drawn) | > 100 µM (inactive) | > 100 µM (inactive) | > 100 µM (inactive) | > 100 µM (inactive) | > 100 | > 100 µM (inactive) | > 100 µM (inactive) | > 100 µM (inactive) | > 100 µM (inactive) | > 100 µM (inactive) | > 100 µM (inactive) | > 100 µM (inactive) | > 100 µM (inactive) | > 100 µM (inactive) | > 100 µM (inactive) | > 100 µM (inactive) | > 100 µM (inactive) | > 100 µM (inactive) | > 100 µM (inactive)
5 | CCOC(=O)Cn1nnc2ccc(Nc3nc4ccccc4nc3-c3ccccc3)cc21 | 32.3 µM (inactive) | > 100 µM (inactive) | > 100 µM (inactive) | 95.3 µM (inactive) | > 100 | > 100 µM (inactive) | > 100 µM (inactive) | > 100 µM (inactive) | > 100 µM (inactive) | > 100 µM (inactive) | > 100 µM (inactive) | > 100 µM (inactive) | 48.6 µM (inactive) | 60.7 µM (inactive) | > 100 µM (inactive) | 85.5 µM (inactive) | > 100 µM (inactive) | 70 µM (inactive) | 30.8 µM (inactive)
6 | COc1ccccc1NC1=NCC(C)S1 (stereo not drawn) | > 100 µM (inactive) | > 100 µM (inactive) | > 100 µM (inactive) | > 100 µM (inactive) | > 100 | > 100 µM (inactive) | > 100 µM (inactive) | > 100 µM (inactive) | > 100 µM (inactive) | > 100 µM (inactive) | > 100 µM (inactive) | > 100 µM (inactive) | > 100 µM (inactive) | > 100 µM (inactive) | > 100 µM (inactive) | > 100 µM (inactive) | > 100 µM (inactive) | > 100 µM (inactive) | > 100 µM (inactive)
7 | CC(=O)OCC1OC(Oc2cc(C)c(O)cc2C/C=C(\C)CC/C=C(\C)C[C@@H](C=C(C)C)OC(C)=O)C(O)C(OC(C)=O)C1OC(C)=O (stereo partly drawn) | 39.1 µM (inactive) | 16.8 µM (inactive) | 9.46 µM (inactive) | 23.2 µM (inactive) | 16.3 | 9.79 µM (inactive) | 17.7 µM (inactive) | 33.6 µM (inactive) | 11.6 µM (inactive) | 16.5 µM (inactive) | 25.2 µM (inactive) | > 50 µM (inactive) | 14.2 µM (inactive) | 13.4 µM (inactive) | > 50 µM (inactive) | 22.2 µM (inactive) | 44.5 µM (inactive) | > 50 µM (inactive) | 13.2 µM (inactive)

Reference: ChEMBL document CHEMBL1201862, “PubChem BioAssay data set” (2004)
